The values below come from PubChem BioAssay (NCI).

Structures are written as SMILES.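 Values below derive from 48-hour exposures of cells grown in 96-well plates, with endpoints linearly interpolated between the two concentrations bracketing the appropriate inhibition level. TGI: concentration producing complete growth inhibition.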

Test systems include HCT-116 colon; MDA-MB-435; U251 CNS; HCC-2998 colon; MALME-3M melanoma; CCRF-CEM leukemia; KM12 colon; NCI-H226 lung; HL-60(TB) leukemia; RPMI-8226 leukemia.
Test in all cases: NCI tumour cell line growth inhibition, 48 h

Take `COc1cccc(/C=N/NC(=O)CN(C)C)c1O`: the TGI in the assay with HCT-116 colon, in the assay with MDA-MB-435, in the assay with U251 CNS, in the assay on HCC-2998 colon, with MALME-3M melanoma and in the assay with CCRF-CEM leukemia was more than 100 µM throughout. The TGI in the assay on KM12 colon, in the assay with NCI-H226 lung and in the assay with HL-60(TB) leukemia was more than 100 µM throughout.
On to `O=C1C(c2c(O)[nH]c3ccc(I)cc23)=Nc2ccccc21`, for which the TGI was more than 100 µM in the assay with MDA-MB-435; more than 100 µM in the assay with RPMI-8226 leukemia; 7.36 µM in the assay on U251 CNS; more than 22.9 µM in the assay with HCC-2998 colon; more than 86.1 µM with MALME-3M melanoma; more than 100 µM in the assay on CCRF-CEM leukemia. Also, the TGI is more than 100 µM with KM12 colon, 6.94 µM in the assay with NCI-H226 lung and more than 100 µM in the assay on HL-60(TB) leukemia.
`CCC1OC2C(CC=C(C)C)=C3OC(C)(O)C(C)(CC)C(=O)C3=C3OC(=O)C=C1C32` (stereo not given): the TGI in the assay on HCT-116 colon was 36.9 µM; with MDA-MB-435, more than 100 µM; in the assay with RPMI-8226 leukemia, more than 100 µM; in the assay with U251 CNS, more than 100 µM; in the assay with HCC-2998 colon, more than 100 µM; with CCRF-CEM leukemia, more than 100 µM. The TGI in the assay with KM12 colon and with NCI-H226 lung was more than 100 µM throughout.
In the case of `CC(C)(CO)NC(=O)c1cccs1`, the TGI in the assay on HCT-116 colon, in the assay on MDA-MB-435, in the assay on RPMI-8226 leukemia, in the assay with U251 CNS, in the assay with HCC-2998 colon and in the assay on MALME-3M melanoma was more than 100 µM in each case. The TGI in the assay on CCRF-CEM leukemia, in the assay with KM12 colon and in the assay with HL-60(TB) leukemia was more than 100 µM throughout.
In the case of `CC1(C)OC2OC(C(=O)c3ccccc3)C3OC(C)(C)OC3C2O1` (stereo not given), the TGI with HCT-116 colon, in the assay on MDA-MB-435, in the assay with RPMI-8226 leukemia, with U251 CNS, in the assay with HCC-2998 colon and in the assay on CCRF-CEM leukemia was more than 100 µM throughout. For the same compound, the TGI in the assay with KM12 colon, in the assay with NCI-H226 lung and in the assay on HL-60(TB) leukemia was more than 100 µM in each case.
On to `Cc1cc(N)c2cc(NC(=O)Nc3ccc4nc(C)cc(N)c4c3)ccc2n1`, for which the TGI in the assay on HCT-116 colon, in the assay on MDA-MB-435, in the assay on RPMI-8226 leukemia, in the assay on U251 CNS, in the assay with HCC-2998 colon and in the assay with MALME-3M melanoma was more than 100 µM in each case. Also, the TGI in the assay on CCRF-CEM leukemia, in the assay on KM12 colon and with NCI-H226 lung was more than 100 µM each time.
Regarding `COc1cc(C(=O)N(C(=O)N2CCCCC2)c2ccccc2)cc(OC)c1OC`, the TGI with HCT-116 colon, with MDA-MB-435, with RPMI-8226 leukemia, in the assay with U251 CNS, with HCC-2998 colon and in the assay with CCRF-CEM leukemia was more than 100 µM each time. Besides, the TGI in the assay with KM12 colon and with NCI-H226 lung was more than 100 µM in each case.
For `COc1ccc(Oc2nc3c(N)cc(C(F)(F)F)cc3nc2-c2ccccc2)cc1`, the TGI with HCT-116 colon, in the assay on MDA-MB-435, in the assay with RPMI-8226 leukemia, with U251 CNS, with HCC-2998 colon and in the assay on CCRF-CEM leukemia was more than 100 µM in each case. In addition, the TGI was 31.6 µM in the assay on KM12 colon, 35.7 µM in the assay with NCI-H226 lung and more than 100 µM in the assay with HL-60(TB) leukemia.
Regarding `COC(=O)C1CCCN1C(=O)OC(C)(C)C` (stereo not given), the TGI in the assay on HCT-116 colon, in the assay with MDA-MB-435, in the assay on U251 CNS, with HCC-2998 colon, with CCRF-CEM leukemia and in the assay with KM12 colon was more than 100 µM throughout. The compound further returned a TGI with NCI-H226 lung of more than 100 µM.
In the case of `CN(C)C1(c2cc3ccccc3s2)CCCCC1`, the TGI was more than 100 µM with HCT-116 colon; more than 100 µM in the assay on MDA-MB-435; more than 100 µM with U251 CNS; 57 µM in the assay on HCC-2998 colon; 0.0223 µM with CCRF-CEM leukemia; more than 100 µM in the assay with KM12 colon. Besides, the figures for the TGI in the assay on NCI-H226 lung and with HL-60(TB) leukemia were more than 100 µM and 0.0658 µM, respectively.
With `CC1=C(C(=O)NCCCN(CCO)CCO)CC(C(=O)NCCCN(CCO)CCO)=C(C)N1`, the TGI with HCT-116 colon is more than 100 µM; with MDA-MB-435, more than 100 µM; in the assay on RPMI-8226 leukemia, more than 100 µM; in the assay on U251 CNS it was more than 100 µM; in the assay with HCC-2998 colon, more than 100 µM; in the assay on CCRF-CEM leukemia, 77.9 µM. The TGI with KM12 colon, in the assay with NCI-H226 lung and with HL-60(TB) leukemia was more than 100 µM each time.
Turning to `CCc1n[nH]c(=O)n1N=C(c1ccccc1)c1ccccc1`, the TGI in the assay with HCT-116 colon, in the assay on MDA-MB-435, in the assay on RPMI-8226 leukemia, with U251 CNS, with MALME-3M melanoma and in the assay on CCRF-CEM leukemia was more than 100 µM each time. Also, the TGI in the assay on KM12 colon, with NCI-H226 lung and in the assay with HL-60(TB) leukemia was more than 100 µM in each case.
Regarding `CN(C)CCCN=c1c2ccccc2n(C)c2[nH]c(=O)n(C)c(=O)c12`, the TGI in the assay on HCT-116 colon is more than 41.8 µM; in the assay on MDA-MB-435, 16.8 µM; in the assay with RPMI-8226 leukemia, more than 54.4 µM; in the assay on U251 CNS it was 15 µM; in the assay on MALME-3M melanoma, 11 µM; with CCRF-CEM leukemia, 16.8 µM. The TGI in the assay with KM12 colon was 42.4 µM; in the assay on NCI-H226 lung it was 18.4 µM; in the assay on HL-60(TB) leukemia it was 6.47 µM.
As for `CC(=O)OC12OC(C)(C3C(=O)N(c4ccccc4)C(=O)C31)N(c1ccccc1)C2=O` (stereo not given), the TGI with HCT-116 colon, in the assay on MDA-MB-435, with U251 CNS, in the assay with HCC-2998 colon, in the assay on MALME-3M melanoma and in the assay with CCRF-CEM leukemia was more than 100 µM throughout. Moreover, the TGI in the assay with KM12 colon, in the assay on NCI-H226 lung and with HL-60(TB) leukemia was more than 100 µM in each case.
Turning to `O=c1cc(NNc2cccc(F)c2)[nH]c(=S)[nH]1`, the TGI with HCT-116 colon, in the assay on MDA-MB-435, in the assay with RPMI-8226 leukemia, with U251 CNS, in the assay with HCC-2998 colon and in the assay with MALME-3M melanoma was more than 100 µM throughout. For the same compound, the TGI in the assay on KM12 colon, in the assay on NCI-H226 lung and in the assay with HL-60(TB) leukemia was more than 100 µM throughout.
